“Also recorded” adds a separate entry of the source. Read-outs that look alike come from different tables or passages of the source. Where only a bound is given, the exact number is not on record here.

Data set [1] has as its system SCHH. The experiment in a line: Feasibility study: BA toxicity potency, Ambrisentan vs Sitaxsentan. Format: cell-based, human. The note with it: 2-200 uM test compound. The text has this: Generally, the presently disclosed methods can in some embodiments comprise culturing SCHH with a concentration range of a bile acid (e.g. DCA), or bile acid pool to identify the toxicity profile of the bile acid (such as by measurement of ATP and/or LDH; dotted line in FIGS. 7 and 8). In a parallel study, SCHH can be exposed to a concentration range of DCA or combination of bile acids in the presence of a potential cholestatic hepatotoxicant.

For data set [2] the following is noted: cited from earlier work.
For data set [3] the following is noted: cited from earlier work; for clinical toxicity: clinic; for ALT elevations≥3× upper limit normal: large clinical trials.
A further data set concerns the target T1, FXR (Homo sapiens, UniProt Q96RI1).
T1 construct: endogenous in cells; host or cells: SCHH (sandwich-cultured hepatocytes from donors)
T1 sequence (Q96RI1 1-486): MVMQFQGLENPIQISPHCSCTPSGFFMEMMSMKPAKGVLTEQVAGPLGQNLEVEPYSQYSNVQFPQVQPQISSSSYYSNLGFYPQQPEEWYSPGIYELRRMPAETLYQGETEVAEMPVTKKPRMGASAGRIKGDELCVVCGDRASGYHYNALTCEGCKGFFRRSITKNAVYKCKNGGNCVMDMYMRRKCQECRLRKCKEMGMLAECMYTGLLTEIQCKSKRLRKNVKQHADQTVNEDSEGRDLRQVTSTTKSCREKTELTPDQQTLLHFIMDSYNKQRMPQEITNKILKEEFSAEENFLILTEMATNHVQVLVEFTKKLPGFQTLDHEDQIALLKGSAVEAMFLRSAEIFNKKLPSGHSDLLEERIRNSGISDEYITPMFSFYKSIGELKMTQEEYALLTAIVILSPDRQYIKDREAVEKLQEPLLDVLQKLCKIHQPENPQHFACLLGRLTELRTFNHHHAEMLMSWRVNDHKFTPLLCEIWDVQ
Briefly: FXR antagonism: OSTβ mRNA induction in SCHH co-treated with CDCA and CsA. In kind it is cell-based. The text has this:
Alternatively, the reduction of OSTβ mRNA content may be explained by cytotoxicity under the conditions evaluated.

For data set [4], the system named is SCHH. Briefly: Bile acids at increasing concentrations in SCHH over 24 hours (ATP, LDH). In kind it is cell-based, human. The note with it: 24 hr exposure. On the procedure: Bile acids GCA, GCDCA and GDCA were evaluated at increasing concentrations in SCHH over 24 hours. ATP (FIG. 9) and LDH (FIG. 10) content were measured.
The test system of data set [5] is sandwich-cultured human hepatocytes. The experiment in a line: Bile acid pool toxicity profile shift in SCHH, ApoTox-Glo Triplex Assay. The note with it: 5 mM and 11 mM glucose. Format: cell-based.
Method: Utilizing similar methodology from the previous sections, hepatotoxicity was evaluated with ApoTox-Glo™ Triplex Assay.
The effects of the test compounds were evaluated in the presence of the individual bile acids and in the presence of a bile acid pool. The effects were compared to bile acid treatment alone. DMSO treatment alone was used as a comparator for hepatotoxicity. Hepatotoxicity was evaluated with ApoTox-Glo™ Triplex Assay, which assesses viability, cytotoxicity and apoptosis.
A bile acid mixture was evaluated, and was composed of 4 different bile acids maintained at a physiological relevant ratio of each bile acid. […] Individual bile acids were dosed using the concentration they represent in the mixture.
A treatment group without free fatty acids was used as a control. Hepatotoxicity was evaluated with ApoTox-Glo™ Triplex Assay which assessed viability, cytotoxicity and apoptosis.
The target of the next data set is T2, NTCP (Homo sapiens, UniProt Q14973).
T2 sequence (Q14973 1-349): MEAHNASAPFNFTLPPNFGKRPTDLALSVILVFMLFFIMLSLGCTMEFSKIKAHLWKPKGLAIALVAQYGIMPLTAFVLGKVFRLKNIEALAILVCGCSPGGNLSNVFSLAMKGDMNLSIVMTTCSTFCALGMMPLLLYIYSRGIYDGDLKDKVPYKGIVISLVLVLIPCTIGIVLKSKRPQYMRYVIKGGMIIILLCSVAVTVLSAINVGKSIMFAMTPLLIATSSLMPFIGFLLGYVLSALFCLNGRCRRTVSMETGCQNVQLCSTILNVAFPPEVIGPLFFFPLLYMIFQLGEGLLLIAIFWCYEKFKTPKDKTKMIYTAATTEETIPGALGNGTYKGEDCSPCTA
Briefly: In vitro assays of NTCP inhibition.

The target in another data set is BSEP (Homo sapiens, UniProt O95342). The experiment in a line: In vitro assay of BSEP effect.
Sequence of BSEP (O95342 whole entry, species assumed): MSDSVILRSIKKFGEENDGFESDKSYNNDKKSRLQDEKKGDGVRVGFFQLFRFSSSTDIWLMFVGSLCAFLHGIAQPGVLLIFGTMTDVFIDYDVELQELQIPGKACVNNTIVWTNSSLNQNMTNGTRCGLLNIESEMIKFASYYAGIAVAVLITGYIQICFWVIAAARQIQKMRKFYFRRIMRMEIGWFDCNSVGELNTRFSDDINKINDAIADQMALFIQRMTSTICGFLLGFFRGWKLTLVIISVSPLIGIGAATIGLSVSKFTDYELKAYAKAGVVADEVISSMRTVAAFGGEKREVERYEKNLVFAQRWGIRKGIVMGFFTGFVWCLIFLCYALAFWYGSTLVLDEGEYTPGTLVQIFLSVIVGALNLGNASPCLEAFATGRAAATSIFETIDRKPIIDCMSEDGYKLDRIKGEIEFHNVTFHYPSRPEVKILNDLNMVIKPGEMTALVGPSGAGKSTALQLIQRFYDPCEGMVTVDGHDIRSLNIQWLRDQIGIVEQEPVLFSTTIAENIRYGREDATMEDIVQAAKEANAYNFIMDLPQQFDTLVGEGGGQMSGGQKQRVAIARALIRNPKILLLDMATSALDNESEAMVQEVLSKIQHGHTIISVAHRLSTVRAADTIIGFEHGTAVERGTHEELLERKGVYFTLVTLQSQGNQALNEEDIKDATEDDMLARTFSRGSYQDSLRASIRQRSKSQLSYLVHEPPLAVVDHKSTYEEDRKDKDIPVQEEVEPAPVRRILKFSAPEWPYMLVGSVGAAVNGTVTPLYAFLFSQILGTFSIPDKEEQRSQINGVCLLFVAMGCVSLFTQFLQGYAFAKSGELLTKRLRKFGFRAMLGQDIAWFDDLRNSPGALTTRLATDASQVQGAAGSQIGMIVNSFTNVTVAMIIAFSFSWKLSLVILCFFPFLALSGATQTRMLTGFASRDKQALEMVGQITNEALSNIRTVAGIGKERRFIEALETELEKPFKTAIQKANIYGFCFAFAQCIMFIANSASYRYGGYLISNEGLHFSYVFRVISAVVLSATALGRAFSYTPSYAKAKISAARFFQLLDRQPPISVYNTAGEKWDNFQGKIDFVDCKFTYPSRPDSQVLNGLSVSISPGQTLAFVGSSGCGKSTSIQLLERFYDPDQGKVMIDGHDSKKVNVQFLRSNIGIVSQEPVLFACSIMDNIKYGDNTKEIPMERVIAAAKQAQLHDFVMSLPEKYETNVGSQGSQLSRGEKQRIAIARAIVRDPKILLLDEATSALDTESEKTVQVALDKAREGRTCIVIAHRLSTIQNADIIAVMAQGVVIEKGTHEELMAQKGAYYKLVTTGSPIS
For data set [6], the system named is SCHH. Briefly: Cholestasis hepatotoxicity screening assay in SCHH (LDH leakage, ATP content), standard vs sensitization medium. In kind it is cell-based. The conditions noted are these: human, 24 h, 100 μM. From the text:
As discussed above, hepatocytes become susceptible to bile acid toxicity (e.g. cholestatic hepatotoxicity) when drug exposure inhibits bile acid efflux routes (e.g. BSEP and/or MRP3/4) and 1) prevents (antagonize) FXR from sensing the rising intracellular concentrations of bile acids; or 2) inhibits bile acid efflux through OSTα/β; or 3) a combination of both. […] Briefly, hepatocytes were established in a sandwich-cultured configuration for four days. […] Drug exposures ranged from about 8× to about 16× Cmax to account for concentrating effect that can occur in the portal vein following oral administration of test compounds. Following 24 hours, LDH leakage and ATP content was evaluated utilizing commercially available assays.
The sensitization medium included free fatty acids and a physiological mixture of primary and secondary bile acids, described above (GCDCA, GCA, DCA, and GDCA) at an adequate concentration (250 μM) that minimized toxicity but challenged the hepatocytes bile acid homeostasis mechanism.

Where [7] appears, read: conditions used to examine FXR antagonism.

As usually defined, the Cmax is the highest concentration seen after dosing. In the case of `COC(c1ccccc1)(c1ccccc1)[C@H](Oc1nc(C)cc(C)n1)C(=O)O` [Ambrisentan], the BA toxicity potency entry with SCHH [1] is recorded as “No change in BA toxicity potency”. Further, the Cmax in data set [2] (in vivo) was 3000 nM. Also, the clinical toxicity entry in [3] is listed as “Well tolerated; no toxicity”.

On to `COc1cccc(Cn2cc(C(=O)Nc3ccc(C)c(S(=O)(=O)N4CCOCC4)c3)c(-c3ccc(C)cc3)n2)c1` [DY268], for which the “induction of OSTβ mRNA content” value at FXR (SCHH co-treated with CDCA and CsA, troglitazone 75-100 μM) is on record as “A similar effect was observed”.

As to `C[C@H](CCC(=O)NCC(=O)O)[C@H]1CC[C@H]2[C@@H]3[C@H](O)C[C@@H]4C[C@H](O)CC[C@]4(C)[C@H]3C[C@H](O)[C@]12C` [GCA], the “cytotoxicity of bile acid” value in the data set on SCHH [4] (increasing concentrations, ATP and LDH) was “not cytotoxic”.

As for `C[C@H](CCC(=O)NCC(=O)O)[C@H]1CC[C@H]2[C@@H]3[C@H](O)C[C@@H]4C[C@H](O)CC[C@]4(C)[C@H]3CC[C@]12C` [GCDCA], in the data set with SCHH [4], the “relative toxicity in the ATP assay” value is given as “equaled GDCA” and the “relative toxicity in the LDH assay” value is “GDCA was greater than GCDCA”.

Consider `C[C@H](CCC(=O)NCC(=O)O)[C@H]1CC[C@H]2[C@@H]3CC[C@@H]4C[C@H](O)CC[C@]4(C)[C@H]3C[C@H](O)[C@]12C` [GDCA], for which, in the data set with SCHH [4], the “relative toxicity in the ATP assay” value is reported as “GCDCA equaled GDCA” and the “relative toxicity in the LDH assay” value is “greater than GCDCA”.

Take `Cc1cc2c(cc1CC(=O)c1sccc1S(=O)(=O)Nc1onc(C)c1Cl)OCO2` [Sitaxsentan]: in [5], the “effect on hepatotoxicity of the bile acid pool” value is “did not alter the hepatotoxicity of the bile acid pool”. Further, in the data set on SCHH [1], the BA toxicity potency entry is recorded as “Decreased BA toxicity potency”. The NTCP effect result on NTCP is given as “potent/efficacious NTCP inhibitor”. For the same compound, the BSEP effect result on BSEP is listed as “no BSEP effect”. In addition, in data set [2] (in vivo), the Cmax was 23500 nM. For the same compound, in [3], the clinical toxicity entry is “Toxicity in clinic after 5 months; liver likely not primary site of toxicity; also recorded: No toxicity @ 3 months”.

Consider `CCc1ccc(CCOc2ccc(CC3SC(=O)NC3=O)cc2)nc1` (stereo not shown) [pioglitazone], for which the Cmax in data set [2] (Dawson et al. 2012) is 2900 nM. Further, the “ALT elevations≥3× upper limit normal” value in [3] is recorded as “not different from placebo recipients”.

Consider `CN(CCOc1ccc(CC2SC(=O)NC2=O)cc1)c1ccccn1` (stereo not shown) [rosiglitazone], for which, in data set [2] (Dawson et al. 2012), the peak concentration (Cmax) is 1000 nM. The “ALT elevations≥3× upper limit normal” value in data set [3] is “not different from placebo recipients”.

On to `Cc1c(C)c2c(c(C)c1O)CCC(C)(COc1ccc(CC3SC(=O)NC3=O)cc1)O2` (stereo not shown) [troglitazone], for which, in the data set with SCHH [6], the ATP content is recorded as 0.9 % of control, the LDH leakage is 863 % of control, the LDH secretion is 490 % of control and the “loss of ATP content” value is given as > 99 % of control. At FXR (setting [7]), the ATP content result was “no significant decreases of ATP content” and the LDH leakage result is recorded as “no significant decreases of ATP content or increases of LDH leakage”.

(Values after patent US20190257817A1, “METHODS AND SYSTEMS FOR SCREENING CANDIDATE COMPOUNDS FOR THEIR POTENTIAL TO CAUSE SYSTEMIC OR HEPATIC TOXICITY” (Qualyst Transporter Solutions, LLC, priority 2016, published 2019).)
